# Values quoted from earlier work, collected in patent US20090130187A1, “Covalent Conjugates of Cotton and Substitutes (Viscose, Modal Cotton) with Bioactive Substances Having Antiseptic, Sanitizing, Acaricidal and Insect Repellent Activity, and a Method for Obtaining Them” (priority 2006, published 2009).
# Test system: rat
compound,measurement,value
"Clc1nc(Cl)nc(Cl)n1 [2,4,6-tri-chloro 1,3,5 triazine]",LD 50 (rat),930 mg/kg
